In patent publication US11690828B2, “Treatment of CNS diseases with sGC stimulators” (Cyclerion Therapeutics, Inc., priority 2016, dated 2023):

Columns and labels:
[1] = system: rats; assay: Acetic acid test - abdominal cramps; assay type: in vivo, rat; conditions: Compound I-2 p.o. 10 mg/kg; 120 minutes after treatment
Description: Acetic Acid Test. Abdominal contraction was induced by intraperitoneal injection of 0.6% acetic acid solution in rats (10 mL/kg). The number of writhing (a twisting or contorting of the body due to pain) was recorded from the 5th to the 15th minute after injection.
Testing: 120 minutes after treatment. N=4/model/test. Results are expressed for each group as a percentage of activity calculated from the mean value of the vehicle-treated animals and compared to naïve animals, control paw, or cut-off value, depending on the test.

[2] = system: cGMP; assay: Compound-induced cGMP in mouse brain; assay type: in vivo
Description: Protocol. Mice (n=9-10 per experimental condition) were dosed P.O. with vehicle (1% hydroxypropyl methyl cellulose, 0.2% Tween80, 0.5% methyl cellulose), P.O. with 10 mg/Kg of Compound I-2. Thirty minutes after dosing, under isoflurane anesthesia, each mouse was decapitated and its brain was removed and was placed into an ice-cold petri dish containing slushy dissection solution (saturated with 95% O2·5% CO2). Using an ice-cold spatula, the brain was transferred to mouse brain matrix with coronal spacing for slicing at 1 mm intervals, as schematized in the FIGURE below (not to scale, just a scheme). • ?
The sliced brain was transferred back into petri dish containing slushy dissection solution with IBMX 0.5 mM (saturated with 95% O2·5% CO2). The dorsal striatum is dissected first, followed by the hippocampus second, followed by the medial prefrontal cortex third, and lastly, the cerebellum fourth. After each region was dissected the “chunk” of tissue was immediately placed into an eppendorf which had been placed on dry ice for the previous 30 minutes. Small pieces of tissue froze very fast, within 10 seconds approximately. After all regions were placed in an eppendorf, eppendorfs were snap frozen by immersion into liquid nitrogen. The tissue samples were stored at −80 C. cGMP levels in brain were determined by LC/MS. Brain samples were homogenized in an aqueous buffer consisting of 80:20 (V/V %) water:acetic acid using an ultrasonicator probe. Brain homogenates containing sGC compounds and or cGMP were extracted from brain tissue by protein precipitation with an organic solvent containing internal standards (IS) followed by filtration and phospholipid removal using a Phenomenex® Phree™ phospholipid removal plate. Samples were analyzed using liquid chromatography (LC) with tandem mass spectrometric detection (MS/MS) using electrospray ionization. The standard curve concentrations used for quantitation of cGMP and or sGC compound(s) ranged from 0.2 to 400 ng/mL. Protein quantification of brain samples was determined using BCA protein assay kit.

Fc1ccccc1Cn1nc(-c2nc(C(F)(F)F)n[nH]2)c2cccnc21 [Compound I-2]
% of activity vs. vehicle, acetic acid test abdominal cramps [1]: 59% | mPFC: nM cGMP/μg protein ([2]; mouse cortex, 10 mg/Kg P.O., 30 minutes after dosing, vehicle 0.075): 0.124 nM cGMP/μg protein | Hippocampus: nM cGMP/μg protein ([2]; mouse, 10 mg/Kg P.O., 30 minutes after dosing, vehicle 0.033): 0.072 nM cGMP/μg protein | Striatum: nM cGMP/μg protein ([2]; mouse, 10 mg/Kg P.O., 30 minutes after dosing, vehicle 0.062): 0.104 nM cGMP/μg protein | Cerebellum: nM cGMP/μg protein ([2]; mouse, 10 mg/Kg P.O., 30 minutes after dosing, vehicle 0.364): 0.681 nM cGMP/μg protein | cGMP in the cerebellum versus vehicle ([2]; mouse, acute 10 mg/Kg P.O.): significant increase | cGMP in the cortex versus vehicle ([2]; mouse, acute 10 mg/Kg P.O.): significant increase | cGMP in the hippocampus versus vehicle ([2]; mouse, acute 10 mg/Kg P.O.): significant increase
